Residues, ends and D or L forms follow the SMILES beside them.

By Ki is commonly meant the dissociation constant of the complex between target and ligand, obtained from inhibition or displacement. Read a high Ki as lower affinity. By Kd is commonly meant the free concentration of one partner at which half of the binding sites on the other are occupied at equilibrium, for simple one-to-one binding. Lower therefore signals a tighter complex.

Assay [1] addresses T1, Superoxide dismutase [Cu-Zn] (Bovine, UniProt P00442). Briefly: SOD Assay (Kinetic Analysis).
Assay [2] deals with T1, Superoxide dismutase [Cu-Zn]. Kind of assay: SOD Assay (Fluorimetric Analysis). The settings on record: pH 8; 37 °C. On the procedure: SOD activity of the purified samples was determined by the SOD assay kit using (2-(4-iodophenyl)-3-(4nitrophenyl)-5-(2,4-disulphenyl)-2H-tetrazolium, monosodium salt) [WST] which is a colorimetric assay that monitors the rate of inhibition of WST to a water soluble formazan dye.

T1 sequence (P00442 whole entry): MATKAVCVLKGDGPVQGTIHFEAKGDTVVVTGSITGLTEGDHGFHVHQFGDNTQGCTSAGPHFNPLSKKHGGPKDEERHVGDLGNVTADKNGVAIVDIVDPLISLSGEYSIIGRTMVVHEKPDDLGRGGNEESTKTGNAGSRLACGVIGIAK

The molecule `CC[C@H](C)[C@H](NC(=O)[C@H](C)NC(=O)CN)C(=O)N[C@H](C(=O)NCC(=O)O)[C@@H](C)CC` [Aβ (29-33)] (H-GAIIG-OH) yielded a Ki in assay [1] of 13.2 µM. This molecule registered a Kd in assay [2] of 15.7 µM.
In the same order, the values of `CC[C@H](C)[C@H](NC(=O)[C@H](C)NC(=O)CNC(=O)[C@H](CCCCN)NC(=O)[C@H](CC(N)=O)NC(=O)[C@H](CO)NC(=O)CN)C(=O)N[C@H](C(=O)NCC(=O)N[C@@H](CC(C)C)C(=O)N[C@@H](CCSC)C(=O)N[C@H](C(=O)NCC(=O)O)C(C)C)[C@@H](C)CC` [Aβ (25-37)] (H-GSNKGAIIGLMVG-OH) are 14.4 µM and 9.38 µM.

For the origin of these results see BindingDB's records for doi:10.3109/14756366.2012.680063 (Rhodes University, 2013).
